Test results reported in PubChem BioAssay (NCI).
Where “and” joins values, the source holds several entries; their conditions need not be identical. Equal values may be shown once.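 These data come from cells grown in 96-well plates and exposed to compound for 48 hours at five concentrations. GI50 = concentration required for 50% inhibition of growth. TGI marks complete inhibition of growth.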 Where a SMILES comes first, the peptide text is derived from it. [ ]: non-standard residue; d: D form. The star is where a group is joined. ξ: configuration not given here. X37 = O=C(OCc1ccccc1)[C@@H]1CCC[C@H]1N*; Fmoc = O=C(OCC1c2ccccc2-c2ccccc21)*; ξW = NC(Cc1c[nH]c2ccccc12)C(=O)O; ξF = NC(Cc1ccccc1)C(=O)O; Boc = CC(C)(C)OC(=O)*; ξK = NCCCCC(N)C(=O)O; ξT = CC(O)C(N)C(=O)O; tBu = CC(C)(C)*

How the values were obtained:
Assay in all cases: NCI anticancer screen, dose series, 48 h
HCC-2998 colon = test system: HCC-2998 colon
OVCAR-8 ovarian = test system: OVCAR-8 ovarian
DU-145 prostate = test system: DU-145 prostate
NCI-H460 lung = test system: NCI-H460 lung
TK-10 renal = test system: TK-10 renal
NCI-H23 lung = test system: NCI-H23 lung
MCF7 breast = test system: MCF7 breast
OVCAR-3 ovarian = test system: OVCAR-3 ovarian
A498 renal = test system: A498 renal
HOP-62 NSCLC = test system: HOP-62 NSCLC

Cc1ccc(S(=O)/C=C(\NC(=O)OCc2ccccc2)C(F)(F)F)cc1 (stereo not given)
TGI (HCC-2998 colon): > 100 µM
TGI (OVCAR-8 ovarian): > 100 µM
TGI (DU-145 prostate): > 100 µM
TGI (NCI-H460 lung): > 100 µM
TGI (TK-10 renal): > 100 µM
TGI (NCI-H23 lung): > 100 µM
TGI (MCF7 breast): > 100 µM
TGI (OVCAR-3 ovarian): > 100 µM

CC(C)(C)[C@@H]1NC(=O)CN1C(=O)OCc1ccccc1
TGI (HCC-2998 colon): > 100 µM
TGI (OVCAR-8 ovarian): > 100 µM
TGI (DU-145 prostate): > 100 µM
TGI (NCI-H460 lung): > 100 µM
TGI (TK-10 renal): > 100 µM
TGI (NCI-H23 lung): > 100 µM
TGI (A498 renal): > 100 µM
TGI (MCF7 breast): > 100 µM
TGI (HOP-62 NSCLC): > 100 µM

CCOC(=O)Nc1ccc(S(=O)(=O)Nc2ccc(Br)cc2)cc1
TGI (OVCAR-8 ovarian): 68.4 µM
TGI (DU-145 prostate): > 100 µM
TGI (NCI-H460 lung): 72 µM
TGI (TK-10 renal): > 100 µM
TGI (NCI-H23 lung): > 100 µM
TGI (A498 renal): 48.4 µM
TGI (MCF7 breast): 75.7 µM
TGI (HOP-62 NSCLC): 86.7 µM
TGI (OVCAR-3 ovarian): > 100 µM

CC1(C(O)c2ccccc2)CN(C(C)(C)C)C(=O)/C1=C\Sc1ccccc1 (stereo not given)
TGI (HCC-2998 colon): > 100 µM
TGI (OVCAR-8 ovarian): > 100 µM
TGI (DU-145 prostate): > 100 µM
TGI (TK-10 renal): > 100 µM
TGI (NCI-H23 lung): > 100 µM
TGI (A498 renal): > 100 µM
TGI (MCF7 breast): > 100 µM
TGI (HOP-62 NSCLC): > 100 µM
TGI (OVCAR-3 ovarian): > 100 µM

CC(OC(C)(C)C)C(NC(=O)C(CCCCNC(=O)OC(C)(C)C)NC(=O)C(Cc1c[nH]c2ccccc12)NC(=O)C(Cc1ccccc1)NC(=O)OCC1c2ccccc2-c2ccccc21)C(=O)NC(Cc1ccccc1)C(=O)N[C@@H]1CCC[C@H]1C(=O)OCc1ccccc1 (stereo not given in full) (Fmoc-[ξF][ξW][ξK](Boc)[ξT](tBu)[ξF]-X37)
TGI (HCC-2998 colon): > 100 µM
TGI (OVCAR-8 ovarian): > 100 µM
TGI (DU-145 prostate): > 100 µM
TGI (NCI-H460 lung): > 100 µM
TGI (TK-10 renal): > 100 µM
TGI (NCI-H23 lung): > 100 µM
TGI (MCF7 breast): > 100 µM
TGI (HOP-62 NSCLC): > 100 µM
TGI (OVCAR-3 ovarian): > 100 µM

Fc1ccc(C(=NCc2ccccc2)N2CCOCC2)cc1
TGI (OVCAR-8 ovarian): > 100 µM
TGI (DU-145 prostate): > 100 µM
TGI (NCI-H460 lung): > 100 µM
TGI (TK-10 renal): > 100 µM
TGI (NCI-H23 lung): > 100 µM
TGI (A498 renal): > 100 µM
TGI (MCF7 breast): > 100 µM
TGI (HOP-62 NSCLC): > 100 µM
TGI (OVCAR-3 ovarian): > 100 µM

O=c1[nH]c2ccc(CC(=S)N3CCN(c4ccccc4)CC3)cc2s1
TGI (OVCAR-8 ovarian): 82 µM
TGI (DU-145 prostate): > 100 µM
TGI (NCI-H460 lung): 56.1 µM
TGI (TK-10 renal): > 100 µM
TGI (NCI-H23 lung): > 100 µM
TGI (A498 renal): > 100 µM
TGI (MCF7 breast): > 100 µM
TGI (HOP-62 NSCLC): 50.1 µM
TGI (OVCAR-3 ovarian): > 100 µM

CCC1OC2C(CC=C(C)C)=C3OC(C)(O)C(C)(CC)C(O)C3=C3OC(=O)C=C1C32 (stereo not given)
TGI (HCC-2998 colon): > 100 µM
TGI (DU-145 prostate): > 100 µM
TGI (NCI-H460 lung): 70.5 µM
TGI (TK-10 renal): > 100 µM
TGI (NCI-H23 lung): 57.7 µM
TGI (A498 renal): > 100 µM
TGI (MCF7 breast): > 100 µM

CCOC(=O)c1ccc(N=C/C=C(\Nc2ccc(C(=O)OCC)cc2)c2ccc3ccccc3c2)cc1
TGI (OVCAR-8 ovarian): > 100 µM
TGI (DU-145 prostate): > 100 µM
TGI (NCI-H460 lung): > 100 µM
TGI (TK-10 renal): 53.4 µM
TGI (NCI-H23 lung): 54 µM
TGI (A498 renal): > 100 µM
TGI (MCF7 breast): 67 µM
TGI (HOP-62 NSCLC): 95.8 µM
TGI (OVCAR-3 ovarian): 83.5 µM

CCOC(=O)c1c(NC(=S)NCc2ccccc2)sc2c1CCN(C)C2
TGI (OVCAR-8 ovarian): > 100 µM
TGI (DU-145 prostate): > 100 µM
TGI (NCI-H460 lung): > 100 µM
TGI (TK-10 renal): > 100 µM
TGI (NCI-H23 lung): > 100 µM
TGI (A498 renal): > 100 µM
TGI (MCF7 breast): > 100 µM
TGI (HOP-62 NSCLC): > 100 µM
TGI (OVCAR-3 ovarian): > 100 µM

COCOc1cc(OC)ccc1C=O
TGI (HCC-2998 colon): 71.5 µM
TGI (OVCAR-8 ovarian): > 100 µM
TGI (DU-145 prostate): > 100 µM
TGI (NCI-H460 lung): > 100 µM
TGI (TK-10 renal): > 100 µM
TGI (NCI-H23 lung): > 100 µM
TGI (MCF7 breast): > 100 µM
TGI (HOP-62 NSCLC): > 100 µM
TGI (OVCAR-3 ovarian): 63.8 µM

COc1cc(O)c(C(=O)/C=C/c2ccc(O)cc2)cc1Oc1ccc(C(=O)/C=C/c2ccc(O)cc2)c(O)c1
TGI (OVCAR-8 ovarian): 7.97 µM
TGI (DU-145 prostate): 5.78 µM
TGI (NCI-H460 lung): 12.1 µM
TGI (TK-10 renal): 11.3 µM
TGI (NCI-H23 lung): 8.88 µM
TGI (A498 renal): 5.68 µM
TGI (MCF7 breast): 13.5 µM
TGI (HOP-62 NSCLC): 9.17 µM
TGI (OVCAR-3 ovarian): 8.14 µM

COC(=O)CCCc1ccc2c(c1)CCC2
TGI (HCC-2998 colon): > 100 µM
TGI (OVCAR-8 ovarian): > 100 µM
TGI (DU-145 prostate): > 100 µM
TGI (NCI-H460 lung): > 100 µM
TGI (TK-10 renal): > 100 µM
TGI (NCI-H23 lung): > 100 µM
TGI (MCF7 breast): > 100 µM
TGI (HOP-62 NSCLC): > 100 µM
TGI (OVCAR-3 ovarian): > 100 µM

COC(=O)C1Cc2c([nH]c3ccccc23)-c2[nH]c3ccccc3c2CC(NC(C)=O)C(=O)NCC(=O)N1 (stereo not given)
TGI (HCC-2998 colon): > 100 µM
TGI (OVCAR-8 ovarian): > 100 µM
TGI (DU-145 prostate): > 100 µM
TGI (NCI-H460 lung): > 100 µM
TGI (TK-10 renal): > 100 µM
TGI (NCI-H23 lung): > 100 µM
TGI (MCF7 breast): > 100 µM
TGI (HOP-62 NSCLC): > 100 µM
TGI (OVCAR-3 ovarian): > 100 µM

COc1ccc(N=NN2CCCC2)cc1
TGI (HCC-2998 colon): > 100 µM
TGI (DU-145 prostate): > 100 µM
TGI (NCI-H460 lung): > 100 µM
TGI (TK-10 renal): > 100 µM
TGI (NCI-H23 lung): > 100 µM
TGI (A498 renal): > 100 µM
TGI (MCF7 breast): 78 µM
TGI (HOP-62 NSCLC): > 100 µM
TGI (OVCAR-3 ovarian): 43.8 µM

CC(=O)c1nc2ccccc2n1CC(=O)c1ccc([N+](=O)[O-])cc1
TGI (OVCAR-8 ovarian): 21 µM
TGI (DU-145 prostate): > 100 µM
TGI (NCI-H460 lung): 68.6 µM
TGI (TK-10 renal): > 100 µM
TGI (NCI-H23 lung): > 100 µM
TGI (A498 renal): > 100 µM
TGI (MCF7 breast): 58.8 µM
TGI (HOP-62 NSCLC): 17.6 µM
TGI (OVCAR-3 ovarian): 35.4 µM

CC1(C)COC(c2cccc(C3=NC(C)(C)CO3)c2)=N1
TGI (HCC-2998 colon): > 100 µM
TGI (OVCAR-8 ovarian): > 100 µM
TGI (DU-145 prostate): > 100 µM
TGI (NCI-H460 lung): > 100 µM
TGI (TK-10 renal): > 100 µM
TGI (NCI-H23 lung): > 100 µM
TGI (MCF7 breast): > 100 µM
TGI (HOP-62 NSCLC): > 100 µM

COc1ccc(NS(=O)C2CCCCC2)cc1 (stereo not given)
TGI (HCC-2998 colon): > 100 µM
TGI (OVCAR-8 ovarian): > 100 µM
TGI (DU-145 prostate): > 100 µM
TGI (NCI-H460 lung): > 100 µM
TGI (TK-10 renal): > 100 µM
TGI (NCI-H23 lung): > 100 µM
TGI (MCF7 breast): > 100 µM
TGI (HOP-62 NSCLC): > 100 µM
TGI (OVCAR-3 ovarian): > 100 µM

CC(=O)OCc1ccc(-c2nc(C#N)c(N)o2)o1
TGI (HCC-2998 colon): > 10 µM
TGI (OVCAR-8 ovarian): > 10 µM
TGI (DU-145 prostate): > 10 µM
TGI (NCI-H460 lung): > 10 µM
TGI (TK-10 renal): > 10 µM
TGI (NCI-H23 lung): > 10 µM
TGI (MCF7 breast): > 10 µM
TGI (HOP-62 NSCLC): > 10 µM

CC(=O)C1=CC=C/C1=N\Nc1ccccc1
TGI (HCC-2998 colon): 20.5 µM
TGI (OVCAR-8 ovarian): 64.4 µM
TGI (DU-145 prostate): 28.2 µM
TGI (NCI-H460 lung): 38.7 µM
TGI (TK-10 renal): 18.6 µM
TGI (NCI-H23 lung): 26.6 µM
TGI (MCF7 breast): 5.68 µM
TGI (HOP-62 NSCLC): 50.9 µM
TGI (OVCAR-3 ovarian): 9.57 µM

Cn1c2ccccc2n2c(=O)c(-c3ccc(O)cc3)nnc12
TGI (HCC-2998 colon): > 100 µM
TGI (OVCAR-8 ovarian): > 100 µM
TGI (DU-145 prostate): > 100 µM
TGI (NCI-H460 lung): > 100 µM
TGI (TK-10 renal): > 100 µM
TGI (NCI-H23 lung): > 100 µM
TGI (A498 renal): > 100 µM
TGI (MCF7 breast): > 100 µM
TGI (HOP-62 NSCLC): > 100 µM

CC(=O)OCC1OC(n2c(-c3ccccc3)c(N=Nc3ccc(Cl)cc3)c(C)c(C#N)c2=S)C(OC(C)=O)C(OC(C)=O)C1OC(C)=O (stereo not given)
GI50 (HCC-2998 colon): 18 µM and > 100 µM
TGI (HCC-2998 colon): 63 µM and > 100 µM
GI50 (DU-145 prostate): 25.3 µM and > 100 µM
TGI (DU-145 prostate): > 100 µM
GI50 (NCI-H460 lung): 5.26 µM and 51.2 µM
TGI (NCI-H460 lung): > 100 µM
TGI (TK-10 renal): > 100 µM
GI50 (NCI-H23 lung): 2.75 µM and 22.3 µM
TGI (NCI-H23 lung): 14.9 µM and > 100 µM
GI50 (A498 renal): 2.78 µM and 19.1 µM
TGI (A498 renal): 43.5 µM and 70.7 µM
GI50 (MCF7 breast): 10.2 µM and 28.2 µM
TGI (MCF7 breast): 24.4 µM and > 100 µM
TGI (HOP-62 NSCLC): 52.9 µM and > 100 µM
GI50 (OVCAR-3 ovarian): 4.77 µM and 39.8 µM
TGI (OVCAR-3 ovarian): 52.5 µM and > 100 µM
